Assay results taken from patent US20060276464A1, “Diarylsulfone sulfonamides and use thereof” (Wyeth, priority 2005, published 2006).

What was measured:
[1] = target: T1, SFRP-1 (Homo sapiens, UniProt Q8N474); experiment: Cell-based assay for in vitro measurement of SFRP-1/SARP2 antagonist activity (U2OS cells co-transfected with 16x TCF-tk-Luciferase reporter, Wnt and hSFRP-1); settings: for fold induction at 10 µM: U2OS, read-out: Fold Induction with SFRP-1, U2OS cells, single dose 10 μM, luciferase reporter, fold induction over SFRP-1 control;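 on all read-outs here: U2OS cells co-transfected with a TCF-tk luciferase reporter, a Wnt vector, hSFRP-1 or empty vector and CMV-βgal, luciferase luminescence read in cell lysates alongside βgal activity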
T1 sequence (Q8N474 32-314): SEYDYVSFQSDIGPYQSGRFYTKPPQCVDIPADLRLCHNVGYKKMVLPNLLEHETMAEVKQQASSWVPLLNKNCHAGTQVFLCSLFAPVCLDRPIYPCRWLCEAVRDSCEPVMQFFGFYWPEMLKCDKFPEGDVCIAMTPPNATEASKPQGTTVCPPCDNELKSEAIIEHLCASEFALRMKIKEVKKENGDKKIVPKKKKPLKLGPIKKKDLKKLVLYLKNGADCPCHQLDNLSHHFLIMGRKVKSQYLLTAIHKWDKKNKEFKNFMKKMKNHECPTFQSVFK

[2] = target: T1, SFRP-1; experiment: Fluorescence polarization binding assay (competitive displacement of a probe compound from SFRP-1); settings: fluorescence anisotropy, 45 nM SFRP-1, 20 nM probe;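 further: test compound competes with a fluorescent probe held by SFRP-1, seen as a drop in probe anisotropy after incubation in darkness, with anisotropy as function of rising compound dose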

Row | SMILES | EC50 [1] [nM] | fold induction at 10 µM [1] | IC50 [2] [nM]
1 | CCOC(=O)CNC(=O)N(C)CCNS(=O)(=O)c1cc(S(=O)(=O)c2ccccc2)ccc1C(F)(F)F [Example 882, ethyl N-({methyl[2-({[5-(phenylsulfonyl)-2-(trifluoromethyl)phenyl]sulfonyl}amino)ethyl]amino}carbonyl)glycinate] | 627 | 3.4 | 80
2 | CN(CCNS(=O)(=O)c1cc(S(=O)(=O)c2ccccc2)ccc1C(F)(F)F)S(=O)(=O)c1cccc(C(=O)O)c1 [Example 883, 3-({methyl[2-({[5-(phenylsulfonyl)-2-(trifluoromethyl)phenyl]sulfonyl}amino)ethyl]amino}sulfonyl)benzoic acid] | 2570 | 2.7 | 400
3 | CC(C)c1ccc(S(=O)(=O)c2ccc(F)cc2)cc1S(=O)(=O)NCCC1CCCNC1 (stereo not drawn) [Example 884, 5-[(4-fluorophenyl)sulfonyl]-2-isopropyl-N-(2-piperidin-3-ylethyl)benzenesulfonamide] | 3400 | 2.7 | 1600
4 | O=S(=O)(NC1CCN(Cc2nn[nH]n2)CC1)c1cc(S(=O)(=O)c2ccccc2)ccc1C(F)(F)F [Example 885, 5-(phenylsulfonyl)-N-[1-(2H-tetrazol-5-ylmethyl)piperidin-4-yl]-2-(trifluoromethyl)benzenesulfonamide] | 2090 | 2.7 | 400
5 | O=C(O)CCC(=O)N1CCC(NS(=O)(=O)c2cc(S(=O)(=O)c3ccccc3)ccc2C(F)(F)F)C1 (stereo not drawn) [Example 886, 4-oxo-4-[3-({[5-(phenylsulfonyl)-2-(trifluoromethyl)phenyl]sulfonyl}amino)pyrrolidin-1-yl]butanoic acid] | 1330 | 2.7 | 150
6 | CN(CCNS(=O)(=O)c1cc(S(=O)(=O)c2ccccc2)ccc1C(F)(F)F)C(=O)N1CCN(C(=O)OC(C)(C)C)CC1 [Example 887, tert-butyl 4-({methyl[2-({[5-(phenylsulfonyl)-2-(trifluoromethyl)phenyl]sulfonyl}amino)ethyl]amino}carbonyl)piperazine-1-carboxylate] | 1770 | 2.3 | 3000
7 | CN(CCNS(=O)(=O)c1cc(S(=O)(=O)c2ccccc2)ccc1C(F)(F)F)C(=O)NCC(=O)O [Example 888, N-({methyl[2-({[5-(phenylsulfonyl)-2-(trifluoromethyl)phenyl]sulfonyl}amino)ethyl]amino}carbonyl)glycine] | 1770 | 2.1 | 900
8 | O=C(O)CCNS(=O)(=O)c1cc(S(=O)(=O)c2ccccc2)ccc1C(F)(F)F [Example 889, N-{[5-(phenylsulfonyl)-2-(trifluoromethyl)phenyl]sulfonyl}-[…]-alanine] |  | 1.3 | 4000
9 | O=C(O)CCCNS(=O)(=O)c1cc(S(=O)(=O)c2ccccc2)ccc1C(F)(F)F [Example 893, 4-({[5-(phenylsulfonyl)-2-(trifluoromethyl)phenyl]sulfonyl}amino)butanoic acid] |  | 1.8 | 700
10 | O=C(O)CCCC(=O)N1CCC(NS(=O)(=O)c2cc(S(=O)(=O)c3ccccc3)ccc2C(F)(F)F)C1 (stereo not drawn) [Example 895, 5-oxo-5-[3-({[5-(phenylsulfonyl)-2-(trifluoromethyl)phenyl]sulfonyl}amino)pyrrolidin-1-yl]pentanoic acid] | 871 | 2.9 | 190
11 | CC(C)(C)OC(=O)N1CCC(CNS(=O)(=O)c2cc(S(=O)(=O)c3ccccc3)ccc2C(F)(F)F)CC1 [Example 896, tert-butyl 4-[({[5-(phenylsulfonyl)-2-(trifluoromethyl)phenyl]sulfonyl}amino)methyl]piperidine-1-carboxylate] | 675 | 2.9 | 300
12 | CN(CCNS(=O)(=O)c1cc(S(=O)(=O)c2ccccc2)ccc1C(F)(F)F)C(=O)CCC(=O)O [Example 897, 4-{methyl[2-({[5-(phenylsulfonyl)-2-(trifluoromethyl)phenyl]sulfonyl}amino)ethyl]amino}-4-oxobutanoic acid] | 1360 | 2.7 | 500
13 | CN(CCNS(=O)(=O)c1cc(S(=O)(=O)c2ccccc2)ccc1C(F)(F)F)C(=O)N1CCNCC1 [Example 898, N-methyl-N-[2-({[5-(phenylsulfonyl)-2-(trifluoromethyl)phenyl]sulfonyl}amino)ethyl]piperazine-1-carboxamide] | 1930 | 3.1 | 1000
14 | O=S(=O)(NCC1CCNCC1)c1cc(S(=O)(=O)c2ccccc2)ccc1C(F)(F)F [Example 899, 5-(phenylsulfonyl)-N-(piperidin-4-ylmethyl)-2-(trifluoromethyl)benzenesulfonamide] | 894 | 4.2 | 300

Second part, the molecule after the results:

Row | EC50 [1] [nM] | fold induction at 10 µM [1] | IC50 [2] [nM] | SMILES
15 |  | 4.1 | 80 | O=S(=O)(NC1Cc2ccccc2C1O)c1cc(S(=O)(=O)c2ccccc2)ccc1C(F)(F)F (stereo not drawn) [Example 900, N-(1-hydroxy-2,3-dihydro-1H-inden-2-yl)-5-(phenylsulfonyl)-2-(trifluoromethyl)benzenesulfonamide]
16 | 224 | 3.4 | 450 | CC(C)(C)OC(=O)N[C@H]1CC[C@H](NS(=O)(=O)c2cc(S(=O)(=O)c3ccccc3)ccc2C(F)(F)F)CC1 [Example 901, tert-butyl [trans-4-({[5-(phenylsulfonyl)-2-(trifluoromethyl)phenyl]sulfonyl}amino)cyclohexyl]carbamate]
17 | 636 | 3 | 180 | O=C(O)CCC(=O)N1CCC(CNS(=O)(=O)c2cc(S(=O)(=O)c3ccccc3)ccc2C(F)(F)F)CC1 [Example 902, 4-oxo-4-{4-[({[5-(phenylsulfonyl)-2-(trifluoromethyl)phenyl]sulfonyl}amino)methyl]piperidin-1-yl}butanoic acid]
18 | 795 | 3.5 | 70 | O=C(O)CCCC(=O)N1CCC(CNS(=O)(=O)c2cc(S(=O)(=O)c3ccccc3)ccc2C(F)(F)F)CC1 [Example 903, 5-oxo-5-{4-[({[5-(phenylsulfonyl)-2-(trifluoromethyl)phenyl]sulfonyl}amino)methyl]piperidin-1-yl}pentanoic acid]
19 | 700 | 3.5 | 60 | O=C(O)c1cccc(S(=O)(=O)N2CCC(CNS(=O)(=O)c3cc(S(=O)(=O)c4ccccc4)ccc3C(F)(F)F)CC2)c1 [Example 904, 3-({4-[({[5-(phenylsulfonyl)-2-(trifluoromethyl)phenyl]sulfonyl}amino)methyl]piperidin-1-yl}sulfonyl)benzoic acid]
20 | 3660 | 1.5 | 2600 | CN(CCO)CCNS(=O)(=O)c1cc(S(=O)(=O)c2ccccc2)ccc1C(F)(F)F [Example 905, N-{2-[(2-hydroxyethyl)(methyl)amino]ethyl}-5-(phenylsulfonyl)-2-(trifluoromethyl)benzenesulfonamide]
21 | 1340 | 2.9 | 900 | COC(=O)CN(C)CCNS(=O)(=O)c1cc(S(=O)(=O)c2ccccc2)ccc1C(F)(F)F [Example 906, methyl N-methyl-N-[2-({[5-(phenylsulfonyl)-2-(trifluoromethyl)phenyl]sulfonyl}amino)ethyl]glycinate]
